Our source for the IC50 and inhibition values is patent US8853203B2, “Diazepinone derivatives” (Novartis AG, priority 2012, dated 2014).

One experiment deals with human mGluR5a receptors (Homo sapiens (Human), UniProt P41594). Kind of experiment: inhibition of glutamate-induced elevation of intracellular calcium in L(tk-) cells expressing human mGluR5a. Type of experiment: cell-based. Particulars: glutamate-induced intracellular calcium elevation, L(tk-) cells expressing human mGluR5a; read-out: mGluR5 IC50. In a few lines:
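Compounds tested for inhibition of the glutamate-induced rise in intracellular calcium concentration in L(tk-) cells stably expressing human mGluR5a.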
In general terms: Calcium flux is commonly read through the fluorescence of an indicator in the cells.

The target in the next experiment is human mGluR1 (Homo sapiens (Human), UniProt Q13255). Kind of experiment: mGluR1 antagonism, L-glutamate induced intracellular calcium increase (FLIPR) in CHO cells stably expressing human mGluR1. Type of experiment: cell-based. Particulars: for pIC50: L-glutamate induced intracellular calcium, CHO cells expressing human mGluR1, FLIPR; for inhibition at 10 µM: CHO.
Chain of human mGluR1 (Q13255 19-1194): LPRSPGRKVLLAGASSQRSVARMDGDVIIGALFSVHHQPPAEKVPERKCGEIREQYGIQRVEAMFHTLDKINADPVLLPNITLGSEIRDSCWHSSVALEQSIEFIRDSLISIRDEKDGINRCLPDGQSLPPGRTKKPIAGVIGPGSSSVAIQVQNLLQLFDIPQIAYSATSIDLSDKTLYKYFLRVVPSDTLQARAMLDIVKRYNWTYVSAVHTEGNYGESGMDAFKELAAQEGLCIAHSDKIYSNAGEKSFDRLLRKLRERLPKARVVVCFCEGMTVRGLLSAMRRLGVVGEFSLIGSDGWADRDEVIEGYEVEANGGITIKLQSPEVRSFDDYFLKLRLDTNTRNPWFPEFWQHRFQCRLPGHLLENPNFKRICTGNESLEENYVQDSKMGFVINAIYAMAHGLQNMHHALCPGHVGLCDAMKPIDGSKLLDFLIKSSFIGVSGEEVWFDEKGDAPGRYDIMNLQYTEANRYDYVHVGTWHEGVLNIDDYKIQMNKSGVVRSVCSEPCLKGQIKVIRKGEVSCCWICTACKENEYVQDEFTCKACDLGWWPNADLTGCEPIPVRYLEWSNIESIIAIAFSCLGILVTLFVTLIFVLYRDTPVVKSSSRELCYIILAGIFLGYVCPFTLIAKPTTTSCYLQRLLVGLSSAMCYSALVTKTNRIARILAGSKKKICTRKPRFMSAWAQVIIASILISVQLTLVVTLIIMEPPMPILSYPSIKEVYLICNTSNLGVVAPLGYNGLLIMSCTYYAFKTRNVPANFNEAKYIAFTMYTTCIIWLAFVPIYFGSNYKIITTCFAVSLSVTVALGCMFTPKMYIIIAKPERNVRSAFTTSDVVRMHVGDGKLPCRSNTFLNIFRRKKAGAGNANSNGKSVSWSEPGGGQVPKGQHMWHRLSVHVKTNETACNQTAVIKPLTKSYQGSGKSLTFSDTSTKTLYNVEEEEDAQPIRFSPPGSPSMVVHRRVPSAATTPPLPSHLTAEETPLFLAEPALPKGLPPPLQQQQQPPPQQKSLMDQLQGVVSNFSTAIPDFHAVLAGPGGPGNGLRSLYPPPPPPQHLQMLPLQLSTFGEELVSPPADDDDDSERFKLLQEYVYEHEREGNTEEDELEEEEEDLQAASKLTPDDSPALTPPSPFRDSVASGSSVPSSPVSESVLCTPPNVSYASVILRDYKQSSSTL

The structures appear in SMILES notation. pIC50: −log10 of the molar value.

Chain of human mGluR5a receptors (P41594 other isoform, or with tags, fused parts or gaps): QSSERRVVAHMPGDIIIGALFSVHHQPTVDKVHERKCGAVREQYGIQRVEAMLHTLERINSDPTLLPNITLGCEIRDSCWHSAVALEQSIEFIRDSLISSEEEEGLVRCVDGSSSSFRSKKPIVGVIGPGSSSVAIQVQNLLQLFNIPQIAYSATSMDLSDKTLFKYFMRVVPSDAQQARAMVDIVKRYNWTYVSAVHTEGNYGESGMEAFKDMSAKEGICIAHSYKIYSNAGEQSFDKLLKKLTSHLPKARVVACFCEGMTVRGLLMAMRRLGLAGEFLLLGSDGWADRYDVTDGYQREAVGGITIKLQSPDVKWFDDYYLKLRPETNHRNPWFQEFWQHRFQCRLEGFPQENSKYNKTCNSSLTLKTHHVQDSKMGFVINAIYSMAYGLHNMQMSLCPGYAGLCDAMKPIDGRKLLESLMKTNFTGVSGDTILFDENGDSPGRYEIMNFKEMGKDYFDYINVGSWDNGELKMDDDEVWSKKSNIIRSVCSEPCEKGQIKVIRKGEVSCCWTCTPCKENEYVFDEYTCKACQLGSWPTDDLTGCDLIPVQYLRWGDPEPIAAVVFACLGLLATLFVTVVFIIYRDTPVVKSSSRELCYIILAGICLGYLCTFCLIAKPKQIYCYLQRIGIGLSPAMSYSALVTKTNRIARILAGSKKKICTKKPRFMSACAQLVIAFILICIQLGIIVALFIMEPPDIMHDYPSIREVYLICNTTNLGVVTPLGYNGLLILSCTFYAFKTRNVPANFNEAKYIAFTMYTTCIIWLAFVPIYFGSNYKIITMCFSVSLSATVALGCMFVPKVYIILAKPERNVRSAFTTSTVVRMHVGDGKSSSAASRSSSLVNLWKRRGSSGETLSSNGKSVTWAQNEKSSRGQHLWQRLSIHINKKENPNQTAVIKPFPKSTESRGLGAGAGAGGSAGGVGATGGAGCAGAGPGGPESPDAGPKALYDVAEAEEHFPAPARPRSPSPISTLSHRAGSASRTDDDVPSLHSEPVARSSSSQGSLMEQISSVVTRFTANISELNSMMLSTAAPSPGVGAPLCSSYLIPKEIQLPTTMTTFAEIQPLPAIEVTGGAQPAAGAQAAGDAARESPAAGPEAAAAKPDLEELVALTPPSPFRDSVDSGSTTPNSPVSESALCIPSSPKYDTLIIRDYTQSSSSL

In general, pIC50 refers to −log10 of the IC50, conventionally taken in molar units. For the molecule `CCc1cn(C2=NCC(=O)N3CCc4c(cccc4-c4ncco4)C3=C2)cn1` [Example 74, 2-(4-ethyl-1H-imidazol-1-yl)-9-(oxazol-2-yl)-7,8-dihydro-[1,4]diazepino[7,1-a]isoquinolin-5(4H)-one], the negative logarithm of the IC50 (pIC50) on human mGluR5a receptors was 7.66; on human mGluR1, 5.92.

As for `CCc1cn(C2=NCC(=O)N3CCc4c(cccc4-c4ccco4)C3=C2)cn1` [Example 75, 2-(4-ethyl-1H-imidazol-1-yl)-9-(furan-2-yl)-7,8-dihydro-[1,4]diazepino[7,1-a]isoquinolin-5(4H)-one], the results for the negative-log IC50 (pIC50) at human mGluR5a receptors and on human mGluR1 were 8.05 and 6.77, respectively.

`COCCc1cn(C2=NCC(=O)N3CCc4c(cccc4-c4cscn4)C3=C2)cn1` [Example 76, 2-(4-(2-methoxyethyl)-1H-imidazol-1-yl)-9-(thiazol-4-yl)-7,8-dihydro-[1,4]diazepino[7,1-a]isoquinolin-5(4H)-one]: the results for the pIC50 on human mGluR5a receptors and on human mGluR1 were 7.47 and 5.38, respectively.

By inhibition is commonly meant the relative decrease from the control value, in per cent. In the case of `COCc1cn(C2=NCC(=O)N3CCc4c(cccc4-c4ncc(C)s4)C3=C2)cn1` [Example 77], on human mGluR5a receptors, the pIC50 is 7.49. Also, at human mGluR1, the inhibition at 10 µM was determined as 73%.

In the case of `Cc1cn(C2=NCC(=O)N3CCc4c(cccc4-c4cncnc4)C3=C2)cn1` [Example 78, 2-(4-methyl-1H-imidazol-1-yl)-9-(pyrimidin-5-yl)-7,8-dihydro-[1,4]diazepino[7,1-a]isoquinolin-5(4H)-one], the negative logarithm of the IC50 (pIC50) is 6.27 at human mGluR5a receptors and less than 5.00 on human mGluR1.

Regarding `Cc1cn(C2=NCC(=O)N3CCc4c(cccc4-c4cccnc4)C3=C2)cn1` [Example 79, 2-(4-methyl-1H-imidazol-1-yl)-9-(pyridin-3-yl)-7,8-dihydro-[1,4]diazepino[7,1-a]isoquinolin-5(4H)-one], the negative-log IC50 (pIC50) on human mGluR5a receptors was 6.89; at human mGluR1 it was less than 5.00.

Consider `Cc1cn(C2=NCC(=O)N3CCc4c(cccc4-c4ccncc4)C3=C2)cn1` [Example 80, 2-(4-methyl-1H-imidazol-1-yl)-9-(pyridin-4-yl)-7,8-dihydro-[1,4]diazepino[7,1-a]isoquinolin-5(4H)-one], for which the pIC50 on human mGluR5a receptors is 6.84; at human mGluR1, less than 5.00.

As to `Cc1cn(C2=NCC(=O)N3CCc4c(cccc4-c4ccc(F)nc4)C3=C2)cn1` [Example 81, 9-(6-fluoropyridin-3-yl)-2-(4-methyl-1H-imidazol-1-yl)-7,8-dihydro-[1,4]diazepino[7,1-a]isoquinolin-5(4H)-one], the pIC50 at human mGluR5a receptors is 7.44; at human mGluR1 it was less than 5.00.

With `Cc1cn(C2=NCC(=O)N3CCc4c(cccc4-c4cncs4)C3=C2)cn1` [Example 82, 2-(4-methyl-1H-imidazol-1-yl)-9-(thiazol-5-yl)-7,8-dihydro-[1,4]diazepino[7,1-a]isoquinolin-5(4H)-one], the pIC50 was 7.14 at human mGluR5a receptors and less than 5.00 at human mGluR1.

In the case of `O=C1CN=C(n2cnc(Cl)c2)C=C2c3cccc(-c4cncc(F)c4)c3CCN12` [Example 83, 2-(4-chloro-1H-imidazol-1-yl)-9-(5-fluoropyridin-3-yl)-7,8-dihydro-[1,4]diazepino[7,1-a]isoquinolin-5(4H)-one], the pIC50 at human mGluR5a receptors was 6.69; at human mGluR1, less than 5.00.

Turning to `COCCc1cn(C2=NCC(=O)N3CCc4c(cccc4-c4ccc(F)nc4)C3=C2)cn1` [Example 84, 9-(6-fluoropyridin-3-yl)-2-(4-(2-methoxyethyl)-1H-imidazol-1-yl)-7,8-dihydro-[1,4]diazepino[7,1-a]isoquinolin-5(4H)-one], the negative-log IC50 (pIC50) is 7.55 on human mGluR5a receptors and less than 5.00 at human mGluR1.

For the molecule `C=Cc1cccc2c1CCN1C(=O)CN=C(n3cnc(COC)c3)C=C21` [Example 85, 2-(4-(methoxymethyl)-1H-imidazol-1-yl)-9-vinyl-7,8-dihydro-[1,4]diazepino[7,1-a]isoquinolin-5(4H)-one], the pIC50 at human mGluR5a receptors is 7.41; at human mGluR1, 5.80.

In the case of `CCc1cn(C2=NCC(=O)N3CCc4c(cccc4-c4ccc(F)cc4)C3=C2)cn1` [Example 86, 2-(4-ethyl-1H-imidazol-1-yl)-9-(4-fluorophenyl)-7,8-dihydro-[1,4]diazepino[7,1-a]isoquinolin-5(4H)-one], the pIC50 at human mGluR5a receptors was 7.92; on human mGluR1, 5.23.

`Cc1coc(-c2cccc3c2CCN2C(=O)CN=C(n4cnc(C5CC5)c4)C=C32)n1` [Example 87, 2-(4-cyclopropyl-1H-imidazol-1-yl)-9-(4-methyloxazol-2-yl)-7,8-dihydro-[1,4]diazepino[7,1-a]isoquinolin-5(4H)-one]: the negative logarithm of the IC50 (pIC50) on human mGluR5a receptors was 6.83. On human mGluR1, the inhibition at 10 µM turned out to be 56%.

Regarding `Cc1cnc(-c2cccc3c2CCN2C(=O)CN=C(n4cnc(C5CC5)c4)C=C32)o1` [Example 88, 2-(4-cyclopropyl-1H-imidazol-1-yl)-9-(5-methyloxazol-2-yl)-7,8-dihydro-[1,4]diazepino[7,1-a]isoquinolin-5(4H)-one], the pIC50 on human mGluR5a receptors was 6.88. For the same molecule, the inhibition at 10 µM on human mGluR1 turned out to be 47%.

In the case of `CCCc1cccc2c1CCN1C(=O)CN=C(n3cnc(-c4ncco4)c3)C=C21` [Example 88a, 2-(4-(oxazol-2-yl)-1H-imidazol-1-yl)-9-propyl-7,8-dihydro-[1,4]diazepino[7,1-a]isoquinolin-5(4H)-one], the pIC50 at human mGluR5a receptors was 8.30. Also, the inhibition at 10 µM on human mGluR1 came out at 24%.

As to `O=C1CN=C(n2cnc(C3CC3)n2)C=C2c3cccc(-c4nccnc4F)c3CCN12` [Example 88b, 2-(3-cyclopropyl-1H-1,2,4-triazol-1-yl)-9-(3-fluoropyrazin-2-yl)-7,8-dihydro-[1,4]diazepino[7,1-a]isoquinolin-5(4H)-one], the negative-log IC50 (pIC50) is 7.70 on human mGluR5a receptors and less than 5.70 on human mGluR1.

`O=C1CN=C(n2cnc(C3CC3)n2)C=C2c3cccc(-c4ncccc4F)c3CCN12` [Example 88c, 2-(3-cyclopropyl-1H-1,2,4-triazol-1-yl)-9-(3-fluoropyridin-2-yl)-7,8-dihydro-[1,4]diazepino[7,1-a]isoquinolin-5(4H)-one]: the pIC50 was 6.57 on human mGluR5a receptors and less than 5.00 on human mGluR1.

As to `O=C1CN=C(n2cnc(C3CC3)c2)C=C2c3cccc(-c4cncs4)c3CCN12` [Example 88d, 2-(4-cyclopropyl-1H-imidazol-1-yl)-9-(thiazol-5-yl)-7,8-dihydro-[1,4]diazepino[7,1-a]isoquinolin-5(4H)-one], the negative-log IC50 (pIC50) at human mGluR5a receptors is 7.51; on human mGluR1, less than 5.70.

Turning to `Cc1ncc(-c2cccc3c2CCN2C(=O)CN=C(n4cnc(C5CC5)c4)C=C32)s1` [Example 88e, 2-(4-cyclopropyl-1H-imidazol-1-yl)-9-(2-methylthiazol-5-yl)-7,8-dihydro-[1,4]diazepino[7,1-a]isoquinolin-5(4H)-one], the negative-log IC50 (pIC50) at human mGluR5a receptors was 7.47; at human mGluR1 it was 5.41.

`O=C1CN=C(n2cnc(C3CC3)c2)C=C2c3cccc(-c4cnccn4)c3CCN12` [Example 88f, 2-(4-Cyclopropyl-1H-Imidazol-1-yl)-9-(pyrazin-2-yl)-7,8-dihydro-[1,4]diazepino[7,1-a]isoquinolin-5(4H)-one]: the pIC50 was 7.00 on human mGluR5a receptors and 5.71 on human mGluR1.

As to `O=C1CN=C(n2cnc(C3CC3)n2)C=C2c3cccc(-c4nccs4)c3CCN12` [Example 88g, 2-(3-cyclopropyl-1H-1,2,4-triazol-1-yl)-9-(thiazol-2-yl)-7,8-dihydro-[1,4]diazepino[7,1-a]isoquinolin-5(4H)-one], the values for the pIC50 on human mGluR5a receptors and at human mGluR1 were 7.77 and 6.12, respectively.
